# Assay results as given in US8067616B2 (Nereus Pharmaceuticals, Inc., priority 2006, dated 2011).
# What was measured:
# [1] = tested on: chymotrypsin-like activity of the 20S proteasome in RPMI 8226 cells; assay: Chymotrypsin-like activity of proteasomes in RPMI 8226 cells after 1 hr exposure, measured in cell lysates (Suc-LLVY-AMC); format: cell-based, human; details: for % inhibition of the 20S proteasome chymotrypsin-like activity in RPMI 8826 cells: 1 hr incubation
# Description: RPMI 8226 (ATCC, CCL-155), the human multiple myeloma cell line, was cultured in RPMI 1640 medium supplemented with 2 mM L-Glutamine, 1% Penicillin/Streptomycin, 10 mM HEPES and 10% Fetal Bovine Serum at 37° C., 5% CO2 and 95% humidified air. To evaluate the inhibitory effects on the chymotrypsin-like activity of the 20S proteasome, test compounds prepared in DMSO were appropriately diluted in culture medium and added to 1×10^6/ml RMPI 8226 cells at final concentration of 1, 5 or 10 nM. DMSO was used as the vehicle control at a final concentration of 0.1%. Following 1 hr incubation of RMPI 8226 cells with the compounds, the cells were pelleted by centrifugation at 2,000 rpm for 10 sec at room temperature and washed 3× with ice-cold 1× Dubach's Phosphate-Buffered Saline (DPBS, Mediatech, Herndon, Va.). DPBS washed cells were lysed on ice for 15 min in lysis buffer (20 mM HEPES, 0.5 mM EDTA, 0.05% Triton X-100, pH 7.3) supplemented with protease inhibitor cocktail (Roche Diagnostics, Indianapolis, Ind.). Cell debris was pelleted by centrifugation at 14,000 rpm for 10 min, 4° C. and supernatants (=cell lysates) were transferred to a new tube. Protein concentration was determined by the BCA protein assay kit (Pierce Biotechnology, Rockford, Ill.). […] The reactions were initiated by the addition of 10 μL of 0.4 mM Suc-LLVY-AMC (prepared by diluting a 10 mM solution of the peptide in DMSO 1:25 with assay buffer) to 190 μL of the cell lysates in 96-well Costar microtiter plate and incubated in the Thermo Lab Systems Fluoroskan plate reader at 37° C. Fluorescence of the cleaved peptide substrate was measured at λex=390 nm and λem=460 nm. All data were collected every five minutes for 2 hour. The total protein used for each assay was 20 μg. The final concentration of Suc-LLVY-AMC and DMSO was 20 μM and 0.2%, respectively. After subtraction of the background (the values from wells containing buffer and substrate in the absence of cell lysate), the activity of test compound was expressed as % inhibition as normalized to the proteasome activity observed in the DMSO treated control cells.
# [2] = biological target: caspase-like activity of purified rabbit 20S proteasomes (Oryctolagus cuniculus, UniProt G1T235); assay: In vitro inhibition of caspase-like activity of purified rabbit muscle 20S proteasome (Z-LLE-AMC); format: biochemical; details: IC50 Values, purified rabbit 20S proteasome
smiles,measurement,setting,value
"C[C@@]12OC(=O)[C@]1([C@@H](O)[C@@H]1C=CCCC1)NC(=O)[C@@H]2CCCl [XVI-1A, Salinosporamide A]",% inhibition of the 20S proteasome chymotrypsin-like activity in RPMI 8826 cells,"[1]; fermentation XVI-1A, 1 nM",38%
same,% inhibition of the 20S proteasome chymotrypsin-like activity in RPMI 8826 cells,"[1]; fermentation XVI-1A, 5 nM",86%
same,% inhibition of the 20S proteasome chymotrypsin-like activity in RPMI 8826 cells,"[1]; fermentation XVI-1A, 10 nM",97%
same,inhibition of the 20S proteasome chymotrypsin-like activity on exposure of RPMI 8226 cells,"[1]; fermentation or synthetic XVI-1A, 1, 5 or 10 nM",dose-dependent inhibition
same,% inhibition of the 20S proteasome chymotrypsin-like activity in RPMI 8826 cells,"[1]; synthetic XVI-1A, 1 nM",32%
same,% inhibition of the 20S proteasome chymotrypsin-like activity in RPMI 8826 cells,"[1]; synthetic XVI-1A, 5 nM",79%
same,% inhibition of the 20S proteasome chymotrypsin-like activity in RPMI 8826 cells,"[1]; synthetic XVI-1A, 10 nM",96%
same,IC50,[2]; XVI-1A obtained by fermentation,387 nM
same,IC50,[2]; XVI-1A obtained synthetically,467 nM
